Source: ChEMBL document CHEMBL1201862, “PubChem BioAssay data set” (2004)
The source made the active and inactive calls.

Experiments:
[1] = test system: Streptococcus sp. 'group A'; assay: Streptococcus pyogenes SK(-)GAS viability under kanamycin – luminescence, BacTiterGlo, confirmation, counter-screen for streptokinase expression inhibitor project, dose response (AID 1900); format: functional, organism-based
BJ [2] = assay: BJ-TERT fibroblast viability loss – cell-based, RAS-independent, luminescence, dose response (AID 1933); format: functional; conditions: Homo sapiens
Streptokinase A = target: T1, Streptokinase A (Streptococcus pyogenes serotype M1, UniProt P10520); assay: viability-normalized secreted streptokinase activity reduction – plasminogen activation absorbance, OD405, dose response (AID 1914); format: functional, Streptococcus pyogenes M1 GAS;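 further: secreted streptokinase activity via plasminogen activation per viability signal from cell pellet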
T1 sequence (P10520 whole entry): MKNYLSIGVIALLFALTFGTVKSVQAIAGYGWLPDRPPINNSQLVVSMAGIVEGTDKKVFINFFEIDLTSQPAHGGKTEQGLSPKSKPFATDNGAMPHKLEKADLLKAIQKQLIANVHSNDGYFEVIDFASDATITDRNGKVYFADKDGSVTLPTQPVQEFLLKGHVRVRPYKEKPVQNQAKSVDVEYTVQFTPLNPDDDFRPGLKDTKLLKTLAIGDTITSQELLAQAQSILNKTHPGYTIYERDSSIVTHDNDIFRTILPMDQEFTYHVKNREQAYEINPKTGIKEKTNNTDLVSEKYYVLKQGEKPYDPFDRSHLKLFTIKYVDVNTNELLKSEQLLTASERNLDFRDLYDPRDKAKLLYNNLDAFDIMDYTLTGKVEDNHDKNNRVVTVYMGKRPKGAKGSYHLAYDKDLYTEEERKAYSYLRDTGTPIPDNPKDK

BJ [3] = assay: cells; format: functional, cell-based; conditions: Homo sapiens
Large T antigen = Large T antigen (Simian virus 40, UniProt P03070); format: functional, Betapolyomavirus macacae;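 further: Confirmatory-stage PubChem screen for compounds that inhibit SV40 T antigen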
Large T antigen, sequence (P03070 whole entry): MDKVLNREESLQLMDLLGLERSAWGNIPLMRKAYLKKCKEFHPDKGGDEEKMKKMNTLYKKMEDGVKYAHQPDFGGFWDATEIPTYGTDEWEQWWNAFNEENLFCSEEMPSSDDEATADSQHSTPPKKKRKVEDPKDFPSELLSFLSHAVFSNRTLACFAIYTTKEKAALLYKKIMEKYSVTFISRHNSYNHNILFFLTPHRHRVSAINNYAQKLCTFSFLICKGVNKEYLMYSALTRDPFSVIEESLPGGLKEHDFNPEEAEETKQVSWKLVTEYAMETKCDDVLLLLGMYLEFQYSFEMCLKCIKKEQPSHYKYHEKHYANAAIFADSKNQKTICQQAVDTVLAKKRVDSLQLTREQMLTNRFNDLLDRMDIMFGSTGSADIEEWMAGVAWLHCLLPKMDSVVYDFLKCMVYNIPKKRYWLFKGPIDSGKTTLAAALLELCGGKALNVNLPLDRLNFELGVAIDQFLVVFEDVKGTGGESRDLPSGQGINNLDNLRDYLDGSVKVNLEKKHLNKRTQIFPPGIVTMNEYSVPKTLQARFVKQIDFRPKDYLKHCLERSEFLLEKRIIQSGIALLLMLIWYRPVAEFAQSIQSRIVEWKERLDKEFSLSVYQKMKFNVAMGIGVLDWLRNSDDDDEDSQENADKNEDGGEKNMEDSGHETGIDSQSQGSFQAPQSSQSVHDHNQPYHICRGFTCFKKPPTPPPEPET

[4] = target: Luciferin 4-monooxygenase (Photinus pyralis, UniProt P08659); assay: inhibition of purified Photinus pyralis luciferase – biochemical, luminescence, dose response (AID 1891)
Luciferin 4-monooxygenase, sequence (P08659 whole entry): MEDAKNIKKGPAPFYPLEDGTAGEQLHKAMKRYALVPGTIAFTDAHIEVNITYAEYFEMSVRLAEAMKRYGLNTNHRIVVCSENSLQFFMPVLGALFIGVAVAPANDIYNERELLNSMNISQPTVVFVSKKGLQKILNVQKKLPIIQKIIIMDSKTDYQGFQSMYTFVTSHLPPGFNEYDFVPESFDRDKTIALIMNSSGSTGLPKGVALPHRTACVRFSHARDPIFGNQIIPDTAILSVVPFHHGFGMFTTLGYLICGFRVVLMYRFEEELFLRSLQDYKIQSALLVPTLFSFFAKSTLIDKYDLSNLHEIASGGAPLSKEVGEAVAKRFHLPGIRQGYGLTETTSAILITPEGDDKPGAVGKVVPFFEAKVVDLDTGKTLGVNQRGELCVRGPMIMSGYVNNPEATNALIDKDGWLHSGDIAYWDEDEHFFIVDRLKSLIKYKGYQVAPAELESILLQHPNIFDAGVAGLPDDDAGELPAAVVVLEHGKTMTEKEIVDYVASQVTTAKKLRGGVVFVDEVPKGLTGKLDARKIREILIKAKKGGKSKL

[5] = Luminescence Cell-Based Dose Confirmation HTS to Identify Inhibitors of Platelet Dense Granule Release. [Related pubchem assays: 1663 (Primary HTS), 1678 (Summary of Project)]; format: functional
BJ [6] = assay: BJ-TERT-LT-ST fibroblast viability loss – cell-based, RAS-independent, luminescence, dose response (AID 1935); format: functional; conditions: Homo sapiens;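 further: BJ fibroblasts immortalized with TERT plus LT and ST oncogenes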
[7] = DRD fibroblast viability loss – cell-based, non-viral oncogenic, luminescence, dose response (AID 1934); format: functional; conditions: Homo sapiens
Streptococcus = assay: GAS UMAA2166 growth inhibition – luminescence, BacTiterGlo, counter-screen for streptokinase expression inhibitor project, dose response (AID 1915); format: functional, organism-based;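 further: potency for reduction of bacterial viability or growth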
HEK293 = assay: EBV LMP1 TES2 canonical NF-kB signalling blockers – cell-based, HEK293, luciferase, cherry-pick, dose response (AID 588343); format: functional; conditions: Homo sapiens
[8] = target: T2, High affinity choline transporter 1 (Homo sapiens, UniProt Q9GZV3); assay: human choline transporter blockers, potency – cell-based, 5-point CRC, membrane potential dye, dose response (AID 504840); format: functional
T2 sequence (Q9GZV3 whole entry): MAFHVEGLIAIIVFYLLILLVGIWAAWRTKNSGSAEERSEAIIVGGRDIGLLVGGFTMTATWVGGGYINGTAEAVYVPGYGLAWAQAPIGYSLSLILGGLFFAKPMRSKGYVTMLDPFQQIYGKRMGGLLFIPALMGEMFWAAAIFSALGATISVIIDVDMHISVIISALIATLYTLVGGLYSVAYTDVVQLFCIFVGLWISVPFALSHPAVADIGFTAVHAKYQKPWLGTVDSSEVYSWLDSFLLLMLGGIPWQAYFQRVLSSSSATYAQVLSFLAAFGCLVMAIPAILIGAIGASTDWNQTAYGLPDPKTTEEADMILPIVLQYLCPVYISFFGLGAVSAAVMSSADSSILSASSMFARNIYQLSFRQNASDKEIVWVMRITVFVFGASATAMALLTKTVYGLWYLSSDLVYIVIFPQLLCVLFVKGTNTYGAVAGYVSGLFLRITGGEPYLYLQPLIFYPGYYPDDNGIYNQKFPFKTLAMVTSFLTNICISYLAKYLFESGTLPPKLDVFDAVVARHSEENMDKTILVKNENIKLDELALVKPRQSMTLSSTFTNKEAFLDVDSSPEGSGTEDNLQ

Vero = assay: viability of Vero cells under compound – cytotoxicity control for flavivirus capping enzyme inhibitors (AID 588742); format: functional; conditions: Chlorocebus sabaeus
BJ [9] = assay: growth inhibition of engineered Ras-driven BJ cells – cell-based, alamar blue fluorescence, cherrypicked samples, dose response (AID 2631); format: functional; conditions: Homo sapiens;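 further: confirmatory dose-response assay in RAS-dependent BJ fibroblasts engineered with TERT, LT and ST, with cytotoxicity read by fluorescence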
Genome polyprotein = Genome polyprotein (dengue virus type 2, UniProt P29990); assay: flavivirus cap methylation enzyme inhibition – biochemical, confirmation dose response, primary screen (AID 588689); format: functional
Genome polyprotein, sequence (P29990 2492-3391 limits assumed): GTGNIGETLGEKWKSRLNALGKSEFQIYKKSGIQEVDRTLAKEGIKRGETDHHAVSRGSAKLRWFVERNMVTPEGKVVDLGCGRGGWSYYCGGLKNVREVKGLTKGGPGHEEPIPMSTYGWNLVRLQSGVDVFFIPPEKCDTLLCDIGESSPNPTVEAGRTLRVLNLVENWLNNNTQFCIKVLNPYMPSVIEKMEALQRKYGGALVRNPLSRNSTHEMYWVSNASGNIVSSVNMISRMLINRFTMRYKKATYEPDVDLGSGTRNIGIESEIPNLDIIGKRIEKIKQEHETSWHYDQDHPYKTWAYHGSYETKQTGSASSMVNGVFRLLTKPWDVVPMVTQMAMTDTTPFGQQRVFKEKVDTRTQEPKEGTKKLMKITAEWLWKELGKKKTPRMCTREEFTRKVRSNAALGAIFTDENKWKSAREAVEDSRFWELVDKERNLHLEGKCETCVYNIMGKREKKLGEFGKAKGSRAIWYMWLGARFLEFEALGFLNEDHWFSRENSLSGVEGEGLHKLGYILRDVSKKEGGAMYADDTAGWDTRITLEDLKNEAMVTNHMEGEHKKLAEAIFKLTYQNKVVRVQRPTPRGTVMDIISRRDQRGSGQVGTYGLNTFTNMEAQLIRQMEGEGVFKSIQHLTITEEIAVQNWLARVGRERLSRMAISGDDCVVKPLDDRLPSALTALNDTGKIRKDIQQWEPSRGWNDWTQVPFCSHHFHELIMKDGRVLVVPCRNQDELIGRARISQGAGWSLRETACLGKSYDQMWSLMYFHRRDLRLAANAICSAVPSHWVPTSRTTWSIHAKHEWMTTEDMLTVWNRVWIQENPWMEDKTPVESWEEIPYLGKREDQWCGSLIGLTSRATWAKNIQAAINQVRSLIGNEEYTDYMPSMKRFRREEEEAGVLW

[10] = reduction of Shn3 3'UTR-driven luciferase in osteoblasts – cell-based, Clone20 osteoblasts, firefly luciferase, cherry-picked, dose response (AID 624132); format: functional;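 further: firefly luciferase luminescence from reporter carrying the Shn3 3'UTR in osteoblasts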
[11] = loss of viability in HepG2 cells – cell-based, CellTiter-Glo, cherry-picked, cytotoxicity control for Shn3 inhibitor project, dose response (AID 624134); format: functional
[12] = non-specific 3'UTR reporter inhibition in Clone20-Shn3RL – cell-based, Renilla luciferase, cherry-picked, counter-screen for Shn3 inhibitor project, dose response (AID 624133); format: functional
Fatty acid synthase [13] = target: T3, Fatty acid synthase (Homo sapiens, UniProt P49327); assay: inhibition of human FAS-TE enzyme activity – biochemical, endpoint fluorescence intensity, uHTS hits, dose response (AID 624327); format: functional;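 further: fluorescence from hydrolysis of an O-methyl fluorescein acyl ester substrate by the enzyme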
T3 sequence (P49327 whole entry): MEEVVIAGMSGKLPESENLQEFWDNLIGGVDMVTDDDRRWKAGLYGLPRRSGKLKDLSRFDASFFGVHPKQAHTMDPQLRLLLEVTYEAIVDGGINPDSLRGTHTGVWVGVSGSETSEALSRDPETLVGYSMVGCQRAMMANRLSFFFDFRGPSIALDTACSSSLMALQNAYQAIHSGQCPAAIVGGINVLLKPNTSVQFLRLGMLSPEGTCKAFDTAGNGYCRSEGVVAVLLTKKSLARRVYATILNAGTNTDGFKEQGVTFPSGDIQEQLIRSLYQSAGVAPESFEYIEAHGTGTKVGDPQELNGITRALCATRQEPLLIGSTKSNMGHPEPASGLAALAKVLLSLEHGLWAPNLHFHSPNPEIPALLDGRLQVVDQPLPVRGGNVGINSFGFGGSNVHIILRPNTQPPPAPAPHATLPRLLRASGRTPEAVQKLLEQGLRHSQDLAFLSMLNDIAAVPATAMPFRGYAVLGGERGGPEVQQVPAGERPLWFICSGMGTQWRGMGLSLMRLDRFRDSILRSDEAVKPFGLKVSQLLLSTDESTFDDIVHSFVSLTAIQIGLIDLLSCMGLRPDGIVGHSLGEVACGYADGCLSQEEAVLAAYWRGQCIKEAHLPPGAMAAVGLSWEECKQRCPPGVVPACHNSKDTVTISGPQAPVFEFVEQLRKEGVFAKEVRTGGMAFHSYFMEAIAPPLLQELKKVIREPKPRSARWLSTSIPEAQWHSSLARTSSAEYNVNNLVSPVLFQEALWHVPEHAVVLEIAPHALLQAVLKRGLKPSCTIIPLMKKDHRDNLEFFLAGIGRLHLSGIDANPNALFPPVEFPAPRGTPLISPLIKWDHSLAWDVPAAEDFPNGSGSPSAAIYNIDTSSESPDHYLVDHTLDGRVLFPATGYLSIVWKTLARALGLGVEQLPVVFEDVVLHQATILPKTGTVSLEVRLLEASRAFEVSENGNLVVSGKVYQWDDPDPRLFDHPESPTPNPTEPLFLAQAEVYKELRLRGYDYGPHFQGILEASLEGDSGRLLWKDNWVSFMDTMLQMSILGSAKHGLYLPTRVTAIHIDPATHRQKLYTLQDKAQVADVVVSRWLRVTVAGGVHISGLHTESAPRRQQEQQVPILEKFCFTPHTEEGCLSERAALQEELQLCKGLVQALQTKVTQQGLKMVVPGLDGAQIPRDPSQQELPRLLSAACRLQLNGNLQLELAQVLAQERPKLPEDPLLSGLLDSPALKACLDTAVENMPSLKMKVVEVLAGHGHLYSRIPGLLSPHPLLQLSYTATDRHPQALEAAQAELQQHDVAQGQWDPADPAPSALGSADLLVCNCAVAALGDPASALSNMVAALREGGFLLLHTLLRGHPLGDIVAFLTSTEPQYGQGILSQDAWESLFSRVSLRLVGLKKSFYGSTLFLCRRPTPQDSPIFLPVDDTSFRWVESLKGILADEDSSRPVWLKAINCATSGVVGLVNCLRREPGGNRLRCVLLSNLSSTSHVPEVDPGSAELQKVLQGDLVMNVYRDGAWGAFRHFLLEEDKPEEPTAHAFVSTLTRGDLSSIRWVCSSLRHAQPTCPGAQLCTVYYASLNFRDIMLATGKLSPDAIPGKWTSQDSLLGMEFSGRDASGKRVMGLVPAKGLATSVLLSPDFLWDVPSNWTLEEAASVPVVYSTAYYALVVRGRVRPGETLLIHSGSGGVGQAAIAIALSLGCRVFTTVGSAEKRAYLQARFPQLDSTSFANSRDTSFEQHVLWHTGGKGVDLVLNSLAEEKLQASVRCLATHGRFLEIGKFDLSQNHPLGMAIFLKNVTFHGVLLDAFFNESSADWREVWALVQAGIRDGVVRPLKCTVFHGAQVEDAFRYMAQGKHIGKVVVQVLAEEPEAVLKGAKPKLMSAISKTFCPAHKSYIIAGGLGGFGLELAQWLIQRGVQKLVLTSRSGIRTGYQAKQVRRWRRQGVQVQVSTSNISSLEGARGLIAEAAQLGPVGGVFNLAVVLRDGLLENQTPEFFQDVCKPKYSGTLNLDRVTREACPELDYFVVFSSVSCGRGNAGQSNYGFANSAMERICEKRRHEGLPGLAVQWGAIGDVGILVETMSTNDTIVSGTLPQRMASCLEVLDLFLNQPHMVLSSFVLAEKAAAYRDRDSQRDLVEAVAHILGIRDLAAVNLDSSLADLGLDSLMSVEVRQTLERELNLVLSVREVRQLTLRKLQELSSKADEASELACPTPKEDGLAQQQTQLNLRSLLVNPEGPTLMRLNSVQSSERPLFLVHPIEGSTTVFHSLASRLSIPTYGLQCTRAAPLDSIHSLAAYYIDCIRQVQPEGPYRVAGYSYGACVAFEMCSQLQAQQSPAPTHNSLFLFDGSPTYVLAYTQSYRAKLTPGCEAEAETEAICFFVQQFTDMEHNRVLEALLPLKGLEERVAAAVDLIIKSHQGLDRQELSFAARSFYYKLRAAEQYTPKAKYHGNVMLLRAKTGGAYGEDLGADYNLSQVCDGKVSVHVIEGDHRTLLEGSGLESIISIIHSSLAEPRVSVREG

Fatty acid synthase [14] = target: T3, Fatty acid synthase; assay: inhibition of human FAS-TE enzyme activity – biochemical, kinetic fluorescence intensity, dose response (AID 624326); format: functional;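 further: rate of fluorescence rise from hydrolysis of a fluorogenic O-methyl fluorescein ester substrate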
Paired box protein Pax-8 = Paired box protein Pax-8 (Homo sapiens, UniProt Q06710); assay: PAX8 transcriptional activity inhibition in RMG-I – RMG-I cells, luciferase, cherry-pick, dose response (AID 687027); format: functional, cell-based;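 further: luciferase reporter driven by Pax8 target thyroperoxidase promoter measured by SteadyGlo luminescence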
Paired box protein Pax-8, sequence (Q06710 whole entry): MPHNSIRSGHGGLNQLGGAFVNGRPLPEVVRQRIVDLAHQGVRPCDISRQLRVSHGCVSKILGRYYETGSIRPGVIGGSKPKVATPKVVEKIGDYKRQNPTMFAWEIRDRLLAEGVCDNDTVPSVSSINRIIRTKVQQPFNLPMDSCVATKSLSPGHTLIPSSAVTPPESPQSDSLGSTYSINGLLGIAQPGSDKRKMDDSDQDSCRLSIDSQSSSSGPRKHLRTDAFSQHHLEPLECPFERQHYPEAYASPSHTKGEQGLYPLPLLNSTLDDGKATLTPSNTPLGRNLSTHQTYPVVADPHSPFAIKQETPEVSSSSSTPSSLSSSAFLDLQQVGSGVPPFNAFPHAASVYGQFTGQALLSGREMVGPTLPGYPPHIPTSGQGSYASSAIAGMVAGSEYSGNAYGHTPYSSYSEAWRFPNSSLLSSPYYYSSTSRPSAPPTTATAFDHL

[15] = general cell-killing toxicity readout – plate reader, dry powder samples, cytotoxicity control for PAX8 inhibitor project, dose response (AID 743021); format: functional, cell-based
[16] = viability of uninfected HEp-2 cells – cell-based, HTS, cytotoxicity control for RSV inhibitor project, dose response (AID 2410); format: functional; conditions: human respiratory syncytial virus
Caspase-3 = target: T4, Caspase-3 (Homo sapiens, UniProt P42574); format: functional;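 further: Dose-response selectivity test against caspase-3 for candidate inhibitors of sentrin-specific proteases (SENPs)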
T4 sequence (P42574 whole entry): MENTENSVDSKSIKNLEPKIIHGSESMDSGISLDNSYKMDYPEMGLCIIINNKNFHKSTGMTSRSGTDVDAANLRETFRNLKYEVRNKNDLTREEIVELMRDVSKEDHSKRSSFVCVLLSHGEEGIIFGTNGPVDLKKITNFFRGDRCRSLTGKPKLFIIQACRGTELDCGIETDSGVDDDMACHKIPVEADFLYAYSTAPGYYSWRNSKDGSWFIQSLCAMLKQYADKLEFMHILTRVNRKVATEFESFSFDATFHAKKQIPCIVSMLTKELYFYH

[17] = target: T5, Sentrin-specific protease 7 (Homo sapiens, UniProt Q9BQF6); format: functional;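 further: Luminescence-based dose-response confirmation of ultra-high-throughput screening hits, measuring inhibition of SENP7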
T5 sequence (Q9BQF6 whole entry): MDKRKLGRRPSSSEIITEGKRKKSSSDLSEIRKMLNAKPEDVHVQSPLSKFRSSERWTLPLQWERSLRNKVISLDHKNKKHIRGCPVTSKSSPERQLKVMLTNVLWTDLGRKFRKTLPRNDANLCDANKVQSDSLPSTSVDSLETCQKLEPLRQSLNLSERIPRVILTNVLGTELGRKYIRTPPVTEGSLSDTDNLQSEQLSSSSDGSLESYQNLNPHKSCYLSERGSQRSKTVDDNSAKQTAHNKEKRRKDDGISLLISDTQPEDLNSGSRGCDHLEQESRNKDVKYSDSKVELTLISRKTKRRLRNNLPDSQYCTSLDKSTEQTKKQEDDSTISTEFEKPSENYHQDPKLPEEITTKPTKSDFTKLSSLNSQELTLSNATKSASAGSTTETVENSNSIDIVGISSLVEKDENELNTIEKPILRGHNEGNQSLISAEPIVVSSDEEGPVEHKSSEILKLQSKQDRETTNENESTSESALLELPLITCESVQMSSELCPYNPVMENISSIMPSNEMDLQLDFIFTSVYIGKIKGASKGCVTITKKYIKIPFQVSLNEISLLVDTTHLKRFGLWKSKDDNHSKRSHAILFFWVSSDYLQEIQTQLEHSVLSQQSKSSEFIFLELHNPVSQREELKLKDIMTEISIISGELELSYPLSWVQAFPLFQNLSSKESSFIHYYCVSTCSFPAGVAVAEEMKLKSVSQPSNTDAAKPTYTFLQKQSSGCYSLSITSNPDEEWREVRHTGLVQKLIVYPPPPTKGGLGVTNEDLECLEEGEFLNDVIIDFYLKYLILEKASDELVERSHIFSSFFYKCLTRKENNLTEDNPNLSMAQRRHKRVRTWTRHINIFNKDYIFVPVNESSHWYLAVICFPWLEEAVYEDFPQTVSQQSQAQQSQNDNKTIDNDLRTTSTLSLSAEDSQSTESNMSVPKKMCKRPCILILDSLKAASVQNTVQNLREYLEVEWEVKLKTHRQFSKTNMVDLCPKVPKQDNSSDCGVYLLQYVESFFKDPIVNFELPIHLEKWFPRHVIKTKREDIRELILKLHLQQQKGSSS

[18] = target: T6, Sentrin-specific protease 6 (Homo sapiens, UniProt Q9GZR1); format: functional;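 further: Luminescence-based dose-response confirmatory assay of SENP6 inhibition, following up an ultra-high-throughput screen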
T6 sequence (Q9GZR1 whole entry): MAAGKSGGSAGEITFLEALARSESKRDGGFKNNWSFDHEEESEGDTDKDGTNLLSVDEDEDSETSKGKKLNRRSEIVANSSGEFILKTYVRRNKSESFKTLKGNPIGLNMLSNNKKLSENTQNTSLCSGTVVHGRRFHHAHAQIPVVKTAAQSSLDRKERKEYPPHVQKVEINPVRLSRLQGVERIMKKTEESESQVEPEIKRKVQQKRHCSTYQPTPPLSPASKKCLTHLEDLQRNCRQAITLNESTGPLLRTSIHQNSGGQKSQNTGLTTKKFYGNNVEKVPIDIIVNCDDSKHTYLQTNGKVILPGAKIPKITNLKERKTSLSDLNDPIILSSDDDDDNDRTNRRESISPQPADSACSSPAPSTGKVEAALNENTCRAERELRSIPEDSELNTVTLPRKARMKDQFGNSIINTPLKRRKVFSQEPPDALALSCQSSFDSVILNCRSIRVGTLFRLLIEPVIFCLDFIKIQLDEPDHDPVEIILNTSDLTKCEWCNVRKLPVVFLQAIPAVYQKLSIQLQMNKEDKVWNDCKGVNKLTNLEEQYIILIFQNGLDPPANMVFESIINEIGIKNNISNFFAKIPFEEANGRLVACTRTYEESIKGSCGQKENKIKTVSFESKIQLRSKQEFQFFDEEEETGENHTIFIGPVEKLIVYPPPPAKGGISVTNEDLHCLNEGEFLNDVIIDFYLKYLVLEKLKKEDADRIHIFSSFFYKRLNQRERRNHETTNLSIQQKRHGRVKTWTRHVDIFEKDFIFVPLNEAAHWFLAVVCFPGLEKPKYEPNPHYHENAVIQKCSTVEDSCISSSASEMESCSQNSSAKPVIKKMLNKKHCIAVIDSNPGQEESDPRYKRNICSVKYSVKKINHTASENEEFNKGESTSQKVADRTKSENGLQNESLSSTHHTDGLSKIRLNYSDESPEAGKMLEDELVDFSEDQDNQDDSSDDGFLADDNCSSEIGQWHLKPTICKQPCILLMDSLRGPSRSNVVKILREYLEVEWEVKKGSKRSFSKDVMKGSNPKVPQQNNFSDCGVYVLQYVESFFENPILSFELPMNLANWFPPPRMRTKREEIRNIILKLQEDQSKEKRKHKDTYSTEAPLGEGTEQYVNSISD

[19] = target: T7, Sentrin-specific protease 8 (Homo sapiens, UniProt Q96LD8); format: functional;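 further: luminescence read-out of SENP8 inhibition, dose-response confirmation following an ultra-high-throughput screen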
T7 sequence (Q96LD8 whole entry): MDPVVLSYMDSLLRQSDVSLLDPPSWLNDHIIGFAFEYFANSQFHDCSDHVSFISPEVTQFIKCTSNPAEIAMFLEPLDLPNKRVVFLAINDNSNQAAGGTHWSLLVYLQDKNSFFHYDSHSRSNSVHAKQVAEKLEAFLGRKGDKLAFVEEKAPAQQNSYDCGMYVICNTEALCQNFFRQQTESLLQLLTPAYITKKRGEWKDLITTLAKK

Compound: O=[N+]([O-])c1c(Nc2cccc(O)c2)cc(Cl)c2nonc12
- EC50 [1]: 7.24 µM (active)
- EC50 (BJ [2]): 2.6 µM (active)
- EC50 (Streptokinase A): 5.58 µM (active)
- EC50 (BJ [3]): 5.62 µM (inconclusive)
- IC50 (Large T antigen): 47.8 µM (active)
- EC50 [4]: > 112 µM (not active)
- EC50 [5]: 4.14 µM (active)
- EC50 (BJ [6]): 4.25 µM (inconclusive)
- EC50 [7]: 5.13 µM (active)
- EC50 (Streptococcus): 10.5 µM (active)
- AC50 (HEK293): 3.64 µM (active)
- IC50 [8]: 10.5 µM (active)
- CC50 (Vero): 33.7 µM (active)
- EC50 (BJ [9]): 0.585 µM (active)
- IC50 (Genome polyprotein): 26.2 µM (active)
- AC50 [10]: 0.683 µM (active)
- AC50 [11]: 12.5 µM (active)
- AC50 [12]: 5.66 µM (active)
- IC50 (Fatty acid synthase [13]): 5.29 µM (active)
- IC50 (Fatty acid synthase [14]): 3.24 µM (active)
- AC50 (Paired box protein Pax-8): 7.24 µM (active)
- AC50 [15]: 22.6 µM (active)

Compound: CCOCCCn1c(=S)[nH]c2ncccc2c1=O
- AC50 (HEK293): 135 µM (active)

Compound: O=C(c1cc(-c2ccc(Cl)cc2Cl)on1)N1CCCCCC1
- CC50 [16]: 39.3 µM (active)
- IC50 (Caspase-3): 17.2 µM (active)
- IC50 [17]: 6.51 µM (active)
- IC50 [18]: 18.5 µM (active)
- IC50 [19]: 20.5 µM (active)

Compound: CCCCOC(=O)Nc1ccc2c(C)cc(=O)oc2c1
- IC50 (Caspase-3): 7.45 µM (active)
- IC50 [17]: 4.58 µM (active)
- IC50 [18]: 8.26 µM (active)
- IC50 [19]: 12.7 µM (active)
